Measurements from US12077503B2, “Substituted cyclic amides and their use as herbicides” (FMC CORPORATION, priority 2015, dated 2024).

How the values were obtained:
Format in all cases: in vivo
[1] = system: ducksalad (Heteranthera limosa); test: Test B flooded paddy test; settings: Flood, 250 g ai/ha, 0 to 100 scale where 0 is no effect and 100 is complete control
How it was run: (§1)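 2-leaf plants; pots flooded 3 cm over soil; cpd added to paddy water; depth held; greenhouse 13–15 d; visual rating vs controls, 0 = no effect, 100 = complete control.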

[2] = system: barnyardgrass (Echinochloa crus-galli); test: Test B flooded paddy test; settings: Flood, 250 g ai/ha, 0 to 100 scale where 0 is no effect and 100 is complete control
How it was run: as §1

[3] = system: sedge, umbrella (small-flower umbrella sedge, Cyperus difformis); test: Test B flooded paddy test; settings: Flood, 250 g ai/ha
How it was run: as §1

rice (Oryra sativa) = test: Test B flooded paddy test; settings: Flood, 250 g ai/ha, 0 to 100 scale where 0 is no effect and 100 is complete control
How it was run: as §1

[4] = system: blackgrass (Alopecurus myosuroides); test: Test A postemergence
How it was run: (§2)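 Compounds were formulated in a non-phytotoxic solvent mixture with surfactant and applied as a preemergence directed soil spray after seeding, or sprayed postemergence over plants 2 to 10 cm tall at the one- to two-leaf stage. Evaluation after about 10 d compared treated with untreated controls, using a scale from 0 (no effect) to 100 (complete control).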

[5] = system: barnyardgrass (Echinochloa crus-galli); test: Test A postemergence
How it was run: as §2

[6] = system: pigweed (Amaranthus retroflexus); test: Test A postemergence
How it was run: as §2

[7] = system: wheat (Triticum aestivum); test: Test A postemergence
How it was run: as §2

[8] = system: ryegrass, Italian (Italian ryegrass, Lolium multiflorum); test: Test A postemergence
How it was run: as §2

[9] = system: ragweed (common ragweed, Ambrosia elatior); test: Test A postemergence
How it was run: as §2

corn (Zea mays) = test: Test A postemergence
How it was run: as §2

[10] = system: Galium (catchweed bedstraw, Galium aparine); test: Test A postemergence
How it was run: as §2

[11] = system: giant foxtail (Setaria faberii); test: Test A postemergence
How it was run: as §2

Kochia (Kochia scoparia) [12] = test: Test A postemergence
How it was run: as §2

[13] = system: barnyardgrass (Echinochloa crus-galli); test: Test A preemergence
How it was run: as §2

[14] = system: pigweed (Amaranthus retroflexus); test: Test A preemergence
[15] = system: ryegrass, Italian (Italian ryegrass, Lolium multiflorum); test: Test A preemergence
How it was run: as §2

[16] = system: ragweed (common ragweed, Ambrosia elatior); test: Test A preemergence
How it was run: as §2

[17] = system: giant foxtail (Setaria faberii); test: Test A preemergence
How it was run: as §2

Kochia (Kochia scoparia) [18] = test: Test A preemergence
How it was run: as §2

[19] = 125 g ai/ha, postemergence, visual rating after approx. 10 d, 0 to 100 scale (0 no effect, 100 complete control)
[20] = 500 g ai/ha, postemergence, visual injury, 0 to 100 scale (0 no effect, 100 complete control), approx. 10 d
[21] = 125 g ai/ha, postemergence, visual injury after approximately 10 d, 0 to 100 scale (0 no effect, 100 complete control)
[22] = 125 g ai/ha, Preemergence, visual injury after approximately 10 d, 0 to 100 scale where 0 is no effect and 100 is complete control
[23] = 500 g ai/ha, preemergence, 0 to 100 scale, 0 = no effect, 100 = complete control
[24] = 125 g ai/ha, preemergence, visual rating after approx. 10 d, 0 to 100 scale where 0 is no effect and 100 is complete control
[25] = 125 g ai/ha, postemergence, visual injury vs untreated controls after approx. 10 d, 0 = no effect, 100 = complete control
[26] = Postemergence, 31 g ai/ha, visual injury after approx. 10 d, 0 to 100 scale, 0 no effect, 100 complete control
[27] = 31 g ai/ha, Preemergence, 0 to 100 scale where 0 is no effect and 100 is complete control
[28] = 125 g ai/ha, preemergence, 0 to 100 scale where 0 is no effect and 100 is complete control, approx. 10 d

CN1CC(c2ccc(C(C)(F)F)cc2)C(C(=O)Nc2ccc(F)cc2F)C1=O (stereo not drawn) [Compound 693]
20: Plant response rating, Rice (rice (Oryra sativa); 13 to 15 d)
80: Plant response rating, Barnyardgrass [5, 20] | Plant response rating, Foxtail, Giant [11, 21] | Plant response rating, Foxtail, Giant [11, 20] | Plant response rating, Barnyardgrass [13, 22] | Plant response rating, Pigweed [14, 23] | Plant response rating, Kochia (Kochia (Kochia scoparia) [18]; [22])
75: Plant response rating, Barnyardgrass ([2]; 13 to 15 d)
50: Plant response rating, Blackgrass [4, 20] | Plant response rating, Wheat [7, 20] | Plant response rating, Ryegrass, Italian [8, 21] | Plant response rating, Ragweed [16, 24]
10: Plant response rating, Blackgrass [4, 19] | Plant response rating, Pigweed [6, 21] | Plant response rating, Ragweed [9, 20]
40: Plant response rating, Corn (corn (Zea mays); [21])
0: Sedge, Umbrella plant response rating ([3]; scale of 0 to 100 where 0 is no effect and 100 is complete control) | Plant response rating, Wheat [7, 21] | Plant response rating, Ragweed [9, 21]
70: Plant response rating, Ducksalad ([1]; 13 to 15 d) | Plant response rating, Barnyardgrass [5, 19] | Plant response rating, Pigweed [6, 20] | Plant response rating, Ryegrass, Italian [8, 20] | Plant response rating, Corn (corn (Zea mays); [20]) | Plant response rating, Galium [10, 20] | Plant response rating, Kochia (Kochia (Kochia scoparia) [12]; [20]) | Plant response rating, Pigweed [14, 24] | Plant response rating, Ryegrass, Italian [15, 23]
60: Plant response rating, Galium [10, 21] | Plant response rating, Kochia (Kochia (Kochia scoparia) [12]; [21]) | Plant response rating, Ryegrass, Italian [15, 24] | Plant response rating, Ragweed [16, 23]
90: Plant response rating, Barnyardgrass [13, 23] | Plant response rating, Foxtail, Giant [17, 22] | Plant response rating, Foxtail, Giant [17, 23] | Plant response rating, Kochia (Kochia (Kochia scoparia) [18]; [23])

CN1C[C@@H](c2ccc([N+](=O)[O-])cc2)[C@H](C(=O)Nc2cccc(F)c2F)C1=O [Compound 1165]
40: Plant response rating, Barnyardgrass [5, 26] | Pigweed plant response rating [14, 27]
70: Foxtail, Giant plant response rating (0 to 100 scale) [11, 25] | Plant response rating, Foxtail, Giant [11, 26] | Barnyardgrass plant response rating [13, 27] | Foxtail, Giant plant response rating [17, 27] | Kochia plant response rating (Kochia (Kochia scoparia) [18]; [28])
60: Galium plant response rating (0 to 100 scale) [10, 25]
45: Rice plant response rating (rice (Oryra sativa))
0: Sedge, Umbrella plant response rating ([3]; 0 to 100 scale where 0 is no effect and 100 is complete control) | Blackgrass plant response rating (0 to 100 scale) [4, 25] | Plant response rating, Blackgrass [4, 26] | Plant response rating, Wheat [7, 26] | Plant response rating, Ryegrass, Italian [8, 26] | Ragweed plant response rating (0 to 100 scale) [9, 25] | Plant response rating, Ragweed [9, 26] | Plant response rating, Corn (corn (Zea mays); [26]) | Ryegrass, Italian plant response rating [15, 27] | Ryegrass, Italian plant response rating [15, 28] | Ragweed plant response rating [16, 27] | Kochia plant response rating (Kochia (Kochia scoparia) [18]; [27])
90: Ducksalad plant response rating [1] | Barnyardgrass plant response rating [13, 28] | Foxtail, Giant plant response rating [17, 28]
95: Barnyardgrass plant response rating [2]
30: Pigweed plant response rating (0 to 100 scale) [6, 25] | Wheat plant response rating (0 to 100 scale) [7, 25] | Corn plant response rating (0 to 100 scale) (corn (Zea mays); [25]) | Kochia plant response rating (0 to 100 scale) (Kochia (Kochia scoparia) [12]; [25]) | Plant response rating, Kochia (Kochia (Kochia scoparia) [12]; [26]) | Ragweed plant response rating [16, 28]
20: Ryegrass, Italian plant response rating (0 to 100 scale) [8, 25] | Plant response rating, Galium [10, 26]
10: Plant response rating, Pigweed [6, 26]
80: Barnyardgrass plant response rating (0 to 100 scale) [5, 25]
50: Pigweed plant response rating [14, 28]
